Laboratory results reported in US12091423B2, “Substituted 3,4,12,12a-tetrahydro-1H-[1,4]oxazino[3,4-c]pyrido[2,1-f][1,2,4]triazine-6,8-dione, pharmaceutical composition, method for the production and use thereof” (VIRIOM, INC., priority 2019, dated 2024).
pEC50: −log10 of the molar value.

System: influenza A/Perth/265/2009 (H1N1pdm09) (H275Y)
Format: cell-based, influenza A virus

Work on `O=C1c2c(O)c(=O)ccn2N([C@@H]2c3ccc(F)c(F)c3CSc3ccsc32)[C@@H]2COCCN12` [1.3.2, (12aR)-7-hydroxy-12-[(10R)-6,7-difluoro-5,10-dihydrothieno[3,2-c][2]benzothiepin-10-yl]-3,4,12,12a-tetrahydro-1H-[1,4]oxazino[3,4-c]pyrido[2,1-f][1,2,4]triazine-6,8-dione] yielded a pEC50 of 9.10.
